Results taken from article PMC13130965, “An Integrated Approach Combining Regulatory Tests in tg(cyp19a1b:GFP) Zebrafish Embryos to Assess Toxicity, Developmental Effects, and Estrogenic Activity of Chemicals: A Case Study with Bisphenol A Substitutes” (Environmental Science & Technology, 2026).
Converted amounts (≈) assume the structure as drawn. Read-outs that look alike come from different tables or passages of the source.

Experiments:
[1] = Refined Fish Embryo Acute Toxicity test (FET, OECD TG 236): mortality; format: in vivo, zebrafish (Danio rerio); details: tg(cyp19a1b:GFP), zebrafish, in vivo, other: waterborne exposure of embryos in test solution, LC50 (96h) experimental (FET test), nominal, brackets 95% CI
Description: (§1) Exposures were carried out in presaturated 24-well plates containing one embryo per well in 2 mL of test solution. The exposure was performed under semistatic conditions, with daily renewal of the test solution. The concentration ranges tested, along with a control with the same percentage of solvent alone, are recapitulated in Table S1. All exposure concentrations are reported as nominal. During the time course of the refined FET tests, embryos were observed after 8 h (coagulation), 24 h (lack of somite formation and nondetachment of the tail), and 48, 72, and 96 h of exposure (nondetection of the heartbeat). […] Moreover, hatching rate and nonlethal developmental effects (i.e., yolk deformity, growth retardation, spontaneous movement, edema, blood tail circulation, heart rate, pigmentation, head and tail/spinal malformations, and hemorrhage) were monitored daily. Tail/spinal malformations included lordosis, kyphosis, scoliosis, and reduced tail length.
(§2) This analysis considered all nonlethal developmental end points monitored in the refined FET assay (see above), except effects on hatching, pigmentation, spontaneous movement, and blood circulation. A teratogenic index (TI) was then calculated as the ratio LC50/EC50.
(§3) Baseline toxicity and experimental FET LC50 values were used to calculate toxic ratios (TR = predicted baseline toxicity LC50/experimental FET LC50). Compounds with TR < 10 were considered as baseline toxicants.

[2] = tested on: tg(cyp19a1b:GFP) zebrafish embryos; assay: Refined FET: developmental effects / malformations; format: in vivo, zebrafish (Danio rerio); details: nominal; for EC50: Danio rerio, end of 96 h exposure, read-out: EC50 malformations (cumulative sublethal end points); for LOEC deformity of yolk: at least 10% of embryos affected
Description: as §1, §2

[3] = tested on: cyp19a1b:GFP (brain aromatase) in tg(cyp19a1b:GFP) zebrafish embryos; assay: EASZY assay (OECD TG 250): GFP induction; format: in vivo, zebrafish (Danio rerio); details: Danio rerio, 96 h, 96 h; for EC50: read-out: EASZY relative EC50, nominal
Description: The tests were conducted according to OECD TG 250. Newly fertilized cyp19a1b-GFP eggs were transferred to glass crystallizing dishes and exposed for 96 h in a humidified climate chamber (27 ± 2 °C) under semistatic conditions with a total renewal of the test solutions each day. Each condition consisted of three crystallizing dishes, each containing 7 embryos and 15 mL of test medium. Embryos were exposed to a range of nonlethal concentrations of chemicals as determined previously based on the refined FET assays. The tested concentration ranges of bisphenols, along with a control with the same percentage of solvent alone, are summarized in Table S2. All exposure concentrations are reported as nominal. At the end of exposure, transgenic zebrafish embryos were collected for fluorescence imaging to quantify GFP intensity. At the end of the experiments, all living zebrafish embryos were euthanized as described above. […] ICI was added together with bisphenols from 0 to 4 dpf (days post fertilization). […] In all coexposure experiments, the final DMSO concentration was 0.02% (v/v).
For fluorescence imaging, GFP fold induction was expressed as mean ± SEM, and values were compared to the DMSO control using one-way ANOVA followed by Dunnett’s posthoc test. […]

[4] = tested on: zfERs / cyp19a1b:GFP in tg(cyp19a1b:GFP) zebrafish embryos; assay: EASZY coexposure with ER antagonist ICI 182,780; format: in vivo, zebrafish (Danio rerio); details: also with 48 h ICI pre-exposure
Description: The tests were conducted according to OECD TG 250. Newly fertilized cyp19a1b-GFP eggs were transferred to glass crystallizing dishes and exposed for 96 h in a humidified climate chamber (27 ± 2 °C) under semistatic conditions with a total renewal of the test solutions each day. Each condition consisted of three crystallizing dishes, each containing 7 embryos and 15 mL of test medium. Embryos were exposed to a range of nonlethal concentrations of chemicals as determined previously based on the refined FET assays. The tested concentration ranges of bisphenols, along with a control with the same percentage of solvent alone, are summarized in Table S2. All exposure concentrations are reported as nominal. At the end of exposure, transgenic zebrafish embryos were collected for fluorescence imaging to quantify GFP intensity. At the end of the experiments, all living zebrafish embryos were euthanized as described above. For coexposure experiments, embryos were exposed to bisphenols in the presence of 1 μM of the ER antagonist ICI 182,780 (ICI). ICI was added together with bisphenols from 0 to 4 dpf (days post fertilization). […] In all coexposure experiments, the final DMSO concentration was 0.02% (v/v).

[5] = target: zebrafish ERβ2 (zfERβ2) (Danio rerio, UniProt Q7ZU32); assay: ZELH-zfERβ2 luciferase reporter gene assay; format: cell-based; details: read-out: maximal efficacy
Description: The ZELH-zfERs reporter cell line was previously established after a two-step stable transfection of the zebrafish hepatic cell line ZFL with the luciferase gene under the control of ERE (yielding the ZELH cell line that expresses no functional ER) and the zebrafish ER subtype β2 (yielding the ZELH-zfERβ2 cell line). Cells were cultured, exposed to chemicals for 72 h, and measured for luciferase activity exactly as previously described. , For each chemical, serial dilutions were prepared in DMSO and tested in three independent experiments. The final DMSO concentration in the culture medium was always 0.1% v/v. All tested concentrations refer to nominal concentrations.

[6] = cited from earlier work
[7] = tested on: hERβ; parameters: method as in Grimaldi et al.; details: HELN-hERβ; ref Grimaldi et al.; cited from earlier work
[8] = tested on: tg(cyp19a1b:GFP) zebrafish embryos; assay: Refined Fish Embryo Acute Toxicity test (FET, OECD TG 236): mortality; format: in vivo, zebrafish (Danio rerio); details: nominal, brackets 95% CI
Description: as §1, §2, §3

[9] = tested on: Zebrafish embryos; details: cited from earlier work
[10] = tested on: Adult Zebrafish; details: ref Ren et al. (2017); cited from earlier work
[11] = tested on: hERβ; parameters: method as in Pelch et al.; details: HepG2-hERβ; ref Pelch et al.; cited from earlier work
[12] = 120h-exposure, ref Qiu et al. (2021)
[13] = zebrafish embryos, ref Ren et al. (2017)

Chain of zebrafish ERβ2 (zfERβ2) (Q7ZU32 1-553): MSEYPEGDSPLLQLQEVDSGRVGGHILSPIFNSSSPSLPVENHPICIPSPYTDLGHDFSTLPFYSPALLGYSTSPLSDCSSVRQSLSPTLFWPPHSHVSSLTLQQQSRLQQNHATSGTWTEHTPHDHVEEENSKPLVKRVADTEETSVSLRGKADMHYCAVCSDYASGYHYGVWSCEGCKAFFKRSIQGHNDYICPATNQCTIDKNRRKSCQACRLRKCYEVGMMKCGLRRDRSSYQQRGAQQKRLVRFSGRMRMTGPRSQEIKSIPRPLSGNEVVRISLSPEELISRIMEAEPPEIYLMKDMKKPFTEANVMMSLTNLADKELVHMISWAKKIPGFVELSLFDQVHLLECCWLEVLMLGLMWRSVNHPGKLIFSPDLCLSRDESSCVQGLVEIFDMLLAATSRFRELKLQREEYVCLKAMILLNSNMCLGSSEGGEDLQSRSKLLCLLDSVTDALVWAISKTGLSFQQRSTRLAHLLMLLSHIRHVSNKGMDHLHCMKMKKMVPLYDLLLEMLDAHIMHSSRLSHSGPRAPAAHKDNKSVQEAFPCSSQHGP

In the case of `Oc1ccc(C(=C(Cl)Cl)c2ccc(O)cc2)cc1` [BPC-Cl, 4-[2,2-dichloro-1-(4-hydroxyphenyl)ethenyl]phenol], the LC50 at 96 h [1] is reported as 4.18 µg/mL (≈ 14.9 µM), the EC50 [2] is reported as 1.28 µg/mL (≈ 4.55 µM) and the LOEC edema [2] is reported as 0.99 mg/L. The “LOEC heart rate disruption” value [2] was 8.89 mg/L, the LOEC hemorrhage [2] was 2.96 mg/L and the “LOEC no blood tail circulation” value [2] was 8.89 mg/L. For the same compound, the “LOEC no spontaneous movement” value [2] was 2.96 mg/L, the “LOEC no/Less pigmentation” value [2] was 8.89 mg/L and the LOEC tail/spinal malformations [2] was 8.89 mg/L. The “LOEC deformity of yolk” value [2] was 0.99 mg/L, the EC50 [3] was 0.015 µg/mL (≈ 0.0534 µM) and the “effect of ICI 1 μM on bisphenol-induced GFP” value [4] was “unable to block”. The Emax [5] was 61%, the “Log Kow” value ([6]; ref ChemSpider) was 4.25 and the EC50 [7] was 46 nM. For the same compound, the maximal efficacy [7] was 35%.

With `Oc1ccc(Cc2ccc(O)cc2)cc1` [BPF, 4-[(4-hydroxyphenyl)methyl]phenol] the LC50 at 96 h [1] was 35 µg/mL (≈ 175 µM), the “LC50 (96h) experimental (FET test)” value [8] was 35.07 [33.99;35.07] mg/L and the EC50 [2] was 17.2 µg/mL (≈ 85.9 µM). For the same compound, the LOEC edema [2] was 15 mg/L, the LOEC head malformations [2] was 7.5 mg/L and the “LOEC heart rate disruption” value [2] was 60 mg/L. The LOEC hemorrhage [2] was 7.5 mg/L, the “LOEC no blood tail circulation” value [2] was 60 mg/L and the “LOEC no spontaneous movement” value [2] was 60 mg/L. The LOEC tail/spinal malformations [2] was 30 mg/L, the “LOEC deformity of yolk” value [2] was 15 mg/L and the EC50 [3] was 0.407 µg/mL (≈ 2.03 µM). For the same compound, the Emax [5] was 71%, the “Log Kow” value ([6]; ref Adamovsky et al.) was 2.91 and the EC50 [7] was 952 nM. The maximal efficacy [7] was 100%, the “Hatching success EC50(72h)” value ([9]; 4-days exposure, ref Moreman et al. (2017)) was 14 (0.41) mg/L and the “LOEC (body length, GnRH3 neurons, reproductive neuroendocrine-related genes and hormones)” value [9, 12] was 100 µg/L. The “NOEC (body length, GnRH3 neurons, reproductive neuroendocrine-related genes and hormones)” value [9, 12] was 1 µg/L, the “NOEC (developmental toxicity)” value ([9]; Wildtype (AB/TL), 1-6 dpf static + 6-9 dpf semistatic, ref Catron et al. (2018; 2019)) was 15.3 µM and the “LC50(96h)” value ([9]; Wildtype AB, 120h-exposure, ref Yang et al. (2017)) was 10.030 µg/mL (≈ 50.1 µM). The mortality ([9]; at 20 mg/L, ref Tišler et al. (2016)) was 20%, the LC50 ([9]; read-out: LC50(96h), Wildtype AB, 96h-exposure, ref Arrokhman et al. (2023)) was 120000 nM and the “Edema EC50(48h)” value ([9]; ref Tišler et al. (2016)) was 10.7 (9.4-12.2) mg/L. For the same compound, the “Hatching inhibition EC50(72h)” value ([9]; ref Tišler et al. (2016)) was 6.8 (5.8-8.5) mg/L, the “Pigmentation EC50(48h)” value ([9]; ref Tišler et al. (2016)) was 1.1 (0.92-1.3) mg/L and the “LC50 (96h) literature” value ([9]; zebrafish embryos, 95% CI, ref Mu et al.) was 19.6 [18.47–20.67] mg/L. The “LC50 (96h) literature” value ([9]; zebrafish embryos, parentheses SEM, ref Moreman et al.) was 32 (0.55) mg/L, the “LC50 (96h) literature” value ([9]; zebrafish embryos, ref Arrokhman et al.) was 24 mg/L (≈ 120 µM) and the “LC50 (96h) literature” value ([9]; zebrafish embryos, ref Gao et al.) was 24.5 mg/L (≈ 122 µM). The “LC50 (96h) literature” value ([9]; zebrafish embryos, ref Gu et al.) was 7.40 mg/L (≈ 37 µM), the “Body length LOEC” value [9, 13] was 8 mg/L and the “Body length NOEC” value [9, 13] was 6 mg/L. The “LC50(24h)” value [9, 13] was 9.13 µg/mL (≈ 45.6 µM), the “LC50(48h)” value [9, 13] was 8.93 µg/mL (≈ 44.6 µM) and the “LC50(72h)” value [9, 13] was 8.56 µg/mL (≈ 42.7 µM). The “LC50 (96h) literature” value ([9]; zebrafish embryos, ref Ren et al.) was 7.40 mg/L (≈ 37 µM), the “LC50(24h)” value [10] was 10.10 µg/mL (≈ 50.4 µM) and the “LC50(48h)” value [10] was 9.86 µg/mL (≈ 49.2 µM). The “LC50(72h)” value [10] was 9.51 µg/mL (≈ 47.5 µM) and the “LC50(96h)” value [10] was 9.51 µg/mL (≈ 47.5 µM).

Work on `C=CCOc1ccc(S(=O)(=O)c2ccc(O)cc2)cc1` [BPS-MAE, 4-(4-prop-2-enoxyphenyl)sulfonylphenol] yielded an LC50 at 96 h [1] of 20.1 µg/mL (≈ 69.1 µM), an EC50 [2] of 6.84 µg/mL (≈ 23.6 µM) and an LOEC edema [2] of 33.3 mg/L. For the same compound, the “LOEC heart rate disruption” value [2] was 33.3 mg/L, the “LOEC no blood tail circulation” value [2] was 33.3 mg/L and the “LOEC no spontaneous movement” value [2] was 33.3 mg/L. For the same compound, the “LOEC no/Less pigmentation” value [2] was 33.3 mg/L, the LOEC tail/spinal malformations [2] was 33.3 mg/L and the minimal effective concentration ([3]; read-out: EASZY LOEC (GFP induction), nominal) was 0.625 µg/mL. The EC50 [3] was 0.327 µg/mL (≈ 1.13 µM), the “effect of ICI 1 μM on bisphenol-induced GFP” value [4] was “unable to block” and the “Log Kow” value ([6]; ref ChemSpider) was 3.13. The maximal efficacy [11] was 6%.
